# “Also recorded” adds a separate entry of the source.
# Key:
# [1] = Solubility limit in the buffer used for activity assays; type: physicochemical; conditions: aqueous buffer
# Source text: It is possible to conclude that expansion of the series towards the para position of the phenyl ring, unless carried out with small groups, is detrimental for the activity of the compounds. […] Even though the carboxylic acid group is essential for the binding to OASS[13] ^, [27] ^, [28], its scarce diffusion across biological membranes is a well-known issue[32] ^, [33]. Therefore, to preserve the key interactions with the target, we carried out the replacement of the carboxylic acid by several isosters (Scheme 2). […] This prompted us to further investigate the mechanism of inhibition of these molecules, since the residual activity at saturating concentrations is significant (about 40 − 50%, Figure 3, panel A). […] This hampers the accurate determination of the inhibition mechanism due to limitations to the range of inhibitor concentration that can be explored. However, since partial inhibition is a typical feature of allosteric inhibitors, we used a method developed by our group[24] to assess if compound 25 is able to displace a low affinity active site binder, 1-ethylcyclopropane-1,2-dicarboxylic acid, that forms a highly fluorescent complex with OASS. […] This is a strong indication that compound 25 is not able to compete for binding to the active site with 1-ethylcyclopropane-1,2-dicarboxylic acid. […]
# [2] = test system: Escherichia coli ATCC25922; test: Minimal inhibitory concentration (CLSI) in medium with limiting cysteine; type: cell-based; conditions: E. coli ATCC25922, medium with limiting cysteine; data not shown
# Protocol: Minimal inhibitory concentration assays were performed according to the CLSI guidelines (Clinical and Laboratory Standards Institute; Performance Standards for Antimicrobial Susceptibility Testing; Twenty-Fourth Informational Supplement; CLSI document M100-S24, CLSI; 2014.). The compounds were dissolved in DMSO to obtain a stock solution 100-fold more concentrated than the desired higher concentration and then 10 serial dilutions were performed. One microliter of each dilution was transferred to the microtiter plate.
# Escherichia coli ATCC25922 was grown until log phase on liquid Mueller–Hinton broth at 37 °C in a shaker at 225 rpm. Bacterial suspension was then centrifuged at 2500 rpm for 15 min and diluted with phosphate buffer to obtain a solution with a turbidity of about 0.5 McFarland. Bacterial suspension was further diluted (1:100) with fresh LB 20%. Fifty microliters of the bacterial suspension containing 10^6 CFU/mL were inoculated into each well, to obtain a final concentration of 5 × 10^5 CFU/mL. Each plate contained growth control wells and sterility check wells.
# We investigated the ability of the new set of compounds to interfere with bacterial growth.
# StOASS-B [3] = target: T1, StOASS-B (Salmonella typhimurium, UniProt P29848); test: Steady-state enzyme activity assay, discontinuous ninhydrin cysteine determination; type: biochemical; conditions: value in brackets in IC50 column
# T1 construct: made in house; host or cells: E. coli
# T1 sequence (P29848 1-303): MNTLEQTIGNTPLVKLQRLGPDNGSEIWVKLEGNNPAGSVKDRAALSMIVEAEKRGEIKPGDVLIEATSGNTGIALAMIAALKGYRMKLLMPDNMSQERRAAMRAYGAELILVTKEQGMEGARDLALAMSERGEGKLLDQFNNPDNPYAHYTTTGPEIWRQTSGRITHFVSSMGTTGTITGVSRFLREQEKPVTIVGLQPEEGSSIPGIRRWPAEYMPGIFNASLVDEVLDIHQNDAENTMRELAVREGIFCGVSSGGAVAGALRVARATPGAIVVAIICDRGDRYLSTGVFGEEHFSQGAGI
# Protocol: (§1) StOASS-A and StOASS-B, expressed in E. coli, were purified by metal affinity chromatography as described previously. Proteins were more that 95% pure based on SDS-PAGE analysis (data not shown).
# (§2) Enzyme activity under steady-state conditions was measured by a discontinuous method as described previously. Briefly, the reaction was carried out in 100 mM HEPES pH 7.0 in the presence of 6 nM OASS, 60 nM BSA to prevent enzyme adhesion to tube wall, 1 mM OAS (equal to the K m value of this subsrate), 0.6 mM Na2S (a saturating concentration), 1% DMSO and variable concentrations of inhibitor. Reaction was stopped at time intervals by the addition of acetic acid and concentration of cysteine was determined by a modification of the ninhydrin assay. The fractional velocity as a function of inhibitor concentration was determined and IC50 was calculated by the following equation: vi/v0=1/1+(I/IC50) where, v 0 is the reaction velocity in the absence of inhibitor and v i is reaction velocity in the presence of inhibitor at concentration [I].
# (§3) For a competitive inhibitor against OAS the IC50 measured under these conditions is about 2⋅K d.
# StOASS-A = target: T2, StOASS-A (Salmonella typhimurium, UniProt P0A1E3); test: as above; type: biochemical, Salmonella enterica serovar Typhimurium; conditions: value in brackets in IC50 column
# T2 construct: made in house; host or cells: E. coli
# Protocol: as §1, §2, §3
# OASS-B = target: T3, OASS-B (Salmonella typhimurium, UniProt P29848); test: Fluorescence competitive binding assay (displacement of 1-ethylcyclopropane-1,2-dicarboxylic acid); conditions: 200 µM 1-ECP-1,2-DCA, 190-200 µM compound, 100 mM Hepes, 1% DMSO, pH 7, 20 °C
# T3 construct: made in house; host or cells: E. coli
# T3 sequence (P29848 1-303): T1 sequence (P29848 1-303)
# Protocol: Ligand affinity was measured by direct fluorimetric titrations, monitoring the fluorescence emission spectrum of cofactor PLP upon excitation at 412 nm. 0.1–1 µM OASS was titrated by increasing concentrations of ligand in 100 mM HEPES pH 7.0, 1% DMSO, at 20 °C. The dependence of fluorescence emission intensity on the concentration of compound was fitted to a binding isotherm: I=I0+ΔI·[ligand]/Kd+[ligand] where, I is the fluorescence emission intensity at a given ligand concentration, I 0 is the fluorescence emission intensity in the absence of ligand, ΔI is the amplitude and K d is the dissociation constant. When the K d was lower than the concentration of the protein used in the assay, the dependence of the fluoresecnce emission intensity on ligand concentration was fitted to a quadratic equation that describes tight binding. The fluorescence competitive binding assay, described elsewhere, was used to evaluate whether compounds bind at the active site of the enzyme or to an allosteric site. […] Binding of a higher affinity compound to the active site displaces 1-ethylcyclopropane-1,2-dicarboxylic acid and leads to a decrease in the fluorescence emission intensity.
# Figure 3. […] Fluorescence emission spectra upon excitation at 412 nm were collected in the absence and presence of 200 µM 1-ethylcyclopropane-1,2-dicarboxylic acid (1-ECP-1,2-DCA). […]
# StOASS-B [4] = target: T1, StOASS-B; set-up: method as in PMID 28821763; conditions: low affinity active site binder; read-out: Kd for OASS-B; cited from earlier work
# T2 sequence (P0A1E3 whole entry): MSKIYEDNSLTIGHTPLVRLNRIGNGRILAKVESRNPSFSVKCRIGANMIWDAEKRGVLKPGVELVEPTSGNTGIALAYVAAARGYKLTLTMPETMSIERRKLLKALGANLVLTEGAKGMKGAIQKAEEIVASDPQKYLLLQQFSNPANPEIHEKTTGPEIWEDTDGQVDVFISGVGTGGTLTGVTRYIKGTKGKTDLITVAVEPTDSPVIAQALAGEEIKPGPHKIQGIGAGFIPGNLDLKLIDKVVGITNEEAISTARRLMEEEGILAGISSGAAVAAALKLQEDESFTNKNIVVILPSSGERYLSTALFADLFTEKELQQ
SMILES,solubility [1],Interference with bacterial growth (MIC) [2],OASS-B percent inhibition measured at saturation of inhibitor or at the highest inhibitor concentration allowed by solubility (StOASS-B [3]),OASS-A percent inhibition measured at saturation of inhibitor or at the highest inhibitor concentration allowed by solubility (StOASS-A),"Displacement of 1-ethylcyclopropane-1,2-dicarboxylic acid from OASS-B (OASS-B)",Kd (StOASS-B [4])
"Cc1ccc(C[C@]2(NS(C)(=O)=O)C[C@H]2c2ccccc2)cc1 [Compound 24, (1R,2S)-1-N-(1-(4-methylbenzyl)-2-phenylcyclopropyl)methanesulfonamide]",~250 µM,none of the synthesised compounds was able to interfere significantly with bacterial growth,50%,45%,,
"Cc1ccc(C[C@]2(NS(=O)(=O)c3ccc(C)cc3)C[C@H]2c2ccccc2)cc1 [Compound 25, (1R,2S)-4-methyl-N-(1-(4-methylbenzyl)-2-phenylcyclopropyl)benzenesulfonamide]",~50 µM,,35%,39%,unable to displace the compound up to an equimolar concentration of about 200 μM; also recorded: does not change the emission spectrum,
"CCC1(C(=O)O)CC1C(=O)O (stereo not drawn) [1-ethylcyclopropane-1,2-dicarboxylic acid]",,,,,,170 µM

# Source: paper PMC6217552, “Refining the structure−activity relationships of 2-phenylcyclopropane carboxylic acids as inhibitors of O-acetylserine sulfhydrylase isoforms” (Journal of Enzyme Inhibition and Medicinal Chemistry, 2018)
